≈ marks a conversion by molar mass, not a printed value. Read-outs that look alike come from different tables or passages of the source. Blank lines part the entries; values can stand above or below the molecule they belong to.
Tests used:
[1] = Ocular pharmacokinetic test: celecoxib content in eye tissues after ocular administration; assay type: in vivo, New Zealand rabbit; details: after ocular administration of eye drops
Excerpt: To compare the content of the active compound celecoxib in each eye tissue to screen out lead compound with excellent pharmacokinetic characteristics after the ocular administration of SZY1907-P3, SZY1907-P4 and celecoxib in New Zealand rabbits.
Grouping: 9 male New Zealand rabbits were randomly divided into 3 groups of 3 animals each.
Dosage: According to the formulation of Guangzhou Zhongshan Ophthalmic Center, the concentration of SZY1907-P3/P4 in eye drops is 0.1%. Thus, the dose of SZY1907-P3/P4 was set to 0.100 mg/New Zealand rabbit and the dose of celecoxib was 0.075 mg/New Zealand rabbit (close to the equimolar dose of SZY1907-P3/P4).
The administration method was consistent with the clinical method, which was, ophthalmic administration, and the rabbit left and right eyes were simultaneously administrated.
0.1% of SZY1907-P3 eye drops: 0.01000 g of SZY1907-P3 was weighed, 0.00500 g of Tween-80 and 0.04500 g of polyoxyethylene 40 hydrogenated castor oil were added, and stirred with a glass rod until the solution was in an emulsion shape. 5 mL of distilled water was added slowly while stirring, dissolved for later use. 0.09000 g of sodium chloride and 0.00125 g of 80% benzalkonium chloride were weighed, 2 mL of distilled water was added, and stirred to dissolve. The two solutions was combined and adjusted the volume to 10 mL. […]

[2] = Stability (purity) of the prototype at different pH values; assay type: physicochemical
[3] = Solubility of SZY1907-P3 prototype and salt forms at different pH values
[4] = Table 1; cited from earlier work
[5] = pH 7

Drug concentration / distribution in ocular tissues (cornea, conjunctiva and aqueous humor), in words [1]: relatively low
Molecule: Cc1ccc(-c2cc(C(F)(F)F)nn2-c2ccc(S(N)(=O)=O)cc2)cc1 [Celecoxib]

Solubility, in words [3]: proper solubility
pH dependence of solubility, in words [3]: a certain pH dependence
Molecule: Cc1ccc(-c2cc(C(F)(F)F)nn2-c2ccc(S(=O)(=O)NC(=O)CCN)cc2)cc1 [SZY1907-P3]
Stability under storage conditions, in words [2]: relatively stable under storage conditions

Drug concentration / distribution in ocular tissues (cornea, conjunctiva and aqueous humor), in words [1]: almost not detected
Molecule: CNCCC(=O)NS(=O)(=O)c1ccc(-n2nc(C(F)(F)F)cc2-c2ccc(C)cc2)cc1 [SZY1907-P4]

Solubility ([3]; pH value 1): 40470 µg/mL
Solubility ([3]; pH value 2): 80 µg/mL
Solubility ([3]; pH value 4): 100 µg/mL
Solubility ([3]; pH value 6): 90 µg/mL
Solubility ([3]; pH value 7): 90 µg/mL
Solubility ([3]; pH value 8): 100 µg/mL
Molecule: NCCCCC(N)C(=O)O (centres unmarked) [lysinate]
Pka [4]: 2.16

Solubility (physchem; aqueous buffer): 100 µg/mL (≈ 221 µM)
Solubility (physchem; pH 1, simulated gastric fluid): 83500 µg/mL (≈ 184000 µM)
Solubility (physchem; pH 2, simulated gastric fluid): 1020 µg/mL (≈ 2250 µM)
Solubility (physchem; pH 4, aqueous buffer): 80 µg/mL (≈ 177 µM)
Solubility (physchem; pH 6, aqueous buffer): 80 µg/mL (≈ 177 µM)
Solubility (physchem; pH 7, aqueous buffer): 90 µg/mL (≈ 199 µM)
Solubility (physchem; pH 8, aqueous buffer): 80 µg/mL (≈ 177 µM)
Purity at Day 0 ([2]; pH value 5.5-6.0): 99.85%
Purity at Day 1 ([2]; pH value 5.5-6.0): 99.32%
Purity at Day 2 ([2]; pH value 5.5-6.0): 99.67%
Purity at Day 5 ([2]; pH value 5.5-6.0): 99.63%
Purity at Day 0 ([2]; pH value 6.5-7.0): 99.88%
Purity at Day 1 ([2]; pH value 6.5-7.0): 100.00%
Purity at Day 2 ([2]; pH value 6.5-7.0): 99.74%
Purity at Day 5 ([2]; pH value 6.5-7.0): 99.87%
Purity at Day 0 ([2]; pH value 7.0-7.5): 99.81%
Purity at Day 1 ([2]; pH value 7.0-7.5): 100.00%
Purity at Day 2 ([2]; pH value 7.0-7.5): 99.70%
Purity at Day 5 ([2]; pH value 7.0-7.5): 99.84%
Solubility ([3]; Table 2, pH value 6.5-7.0): 90 µg/mL
Solubility ([3]; Table 2, pH value 7.0-7.5): 100 µg/mL
Molecule: Cc1ccc(-c2cc(C(F)(F)F)nn2-c2ccc(S(=O)(=O)NC(=O)CCN)cc2)cc1 [prototype]

Molecule: fumarate
Pka [4]: 3.03
Solubility [5]: 90 µg/mL

Solubility ([3]; pH value 1): 42900 µg/mL
Solubility ([3]; pH value 2): 25720 µg/mL
Solubility ([3]; pH value 4): 1280 µg/mL
Solubility ([3]; pH value 6): 470 µg/mL
Solubility ([3]; pH value 7): 90 µg/mL
Solubility ([3]; pH value 8): 100 µg/mL
Molecule: phosphate
